Experimental data as given in paper PMC10605010, “Immunotechniques for the Group Determination of Macrolide Antibiotics Traces in the Environment Using a Volume-Mediated Sensitivity Enhancement Strategy” (Biosensors, 2023).
Values after ≈ are worked out from the molar mass of the structure shown. Like-named read-outs stand apart in the source and are kept apart here.

Key:
[1] = system: anti-BSA-cmoCLA(ae) antibodies; parameters: method as in PMID 25256165; conditions: coating antigen GEL-cmoCLA(ae), homologous; cited from earlier work
[2] = system: anti-BSA-cmoCLA(ae) antibody; assay: PrG-Ab-ELISA, step-by-step oriented antibody coating via protein G, direct competitive; assay type: binding, rabbit; conditions: 0.5 h, coating Ab 200 µL, standard/sample 250 µL
Source text: (§1) Another important consideration was the enhancement of the functional activity of antibodies through their oriented immobilization on the surface of polystyrene and its potential impact on the method sensitivity. This was achieved by interacting the adsorbed protein G with the antibody Fc fragments, allowing the antibody-binding fragments to remain spatially accessible. This interaction could be implemented in a step-by-step manner or as a result of self-assembly (Figure 4A). The step-by-step procedure involved the initial formation of a complex between the coated protein G and the antibody (PrG-Ab), followed by a competitive assay step. An alternative self-assembly method implied the competitive interaction of antibody with an analyte (sample) and a tracer in the solution with simultaneous binding to the coated protein G (PrG).

[3] = system: anti-BSA-cmoCLA(ae) antibodies; assay: Indirect competitive ELISA (icELISA), variants by coating antigen; assay type: binding, rabbit; conditions: for CR: CLA = 100
Protocol: In present work, we investigated and compared several new-designed and previously established coating antigens, which were adsorbed on the 96-well Costar plates from 0.1 to 3.0 µg/mL solutions in CBB (pH 9.6) overnight at 4 °C. […] Solutions of these analytes (1 pg/mL–1 μg/mL) were added to wells of the plate along with anti-cmoCLA antibody in PBS-T with 1%BSA and incubated for 1 h at 25 °C in plate-shaker ST-3 L (ELMI Ltd. laboratory equipment, Riga, Latvia). GAR-HRP was used to detect antigen-antibody formed complexes for 1 h at 37 °C. The activity of the bound enzyme was detected using TMB-substrate mixture, and the intensity of colored product was read at 450 nm using a LisaScan spectrophotometer (Erba Mannheim, Czech Republic). […] The relative antibody-binding absorbance (B/B0) was determined for each concentration of analyte and used to construct a calibration curve as B/B0 versus the concentration. Structurally related macrolides CLA, ESE, ROX, AZI, DIR, TUL, and OLE were analyzed for their cross-reactions. […] Assay sensitivity, limit of detection (LOD), and working range of the assay were set as values of IC50, IC10, and IC20-IC80 range, respectively.

[4] = system: antibody, immunogen Commercial; parameters: method as in PMID 26497839; conditions: milk; cited from earlier work
[5] = system: antibody to immunogen BSA-cmoCLA(ae); parameters: method as in doi:10.1039/C9QM00429G; conditions: milk; CLA = 100; cited from earlier work
[6] = system: anti-BSA-cmoCLA(ae) antibody; assay: PrG-ELISA, self-assembly on coated protein G, direct competitive; assay type: binding, rabbit; conditions: 1.5 h, coating Ab 200 µL, standard/sample 250 µL
Source text: as §1

[7] = system: Anti-CLA(IgG) coupled to Sepharose beads; assay: Immunofiltration assay (IFA); assay type: binding, rabbit; conditions: overnight, Ab volume 50 µL, standard/sample 10,000 µL
Protocol: Sepharose 4B or Sepharose-CL-2B (Pharmacia, Uppsala, Sweden) were washed with water on a porous glass filter and then squeezed out with a soft press from excess moisture. The washed beads (2 g) were placed in a vial with sodium periodate solution (60 mg in 5 mL H2O) and mixed with a rotary mixer (ELMI Ltd. laboratory equipment, Riga, Latvia) for 45 min. An additional 30 min rotation continued after the addition of ethylene glycol (250 µL). The beads were then washed with water and finally with CBB (pH 9.6) squeezed mildly out. Each of the activated sorbents was placed in a vial for mixing with anti-cmoCLA IgG (10 mg) in 2 mL CBB (pH 9.6) for 48 h at 4 °C. The excess antibody was squeezed out. The beads were then washed with water and placed in a sodium borohydride solution (4 mg/4 mL) for 1 h with occasional shaking. After the final washing with water and PSBT, the resulting immune sorbents were stored at 4 °C in 10 mL of PSBT preserved with Merthiolate (1 mg).
To implement these assay formats, the IgG fraction was first isolated from antiserum via the double precipitation method using caprylic acid and ammonium sulfate, described in detail in [22]. The principle of the assays is based on competition between analyte and enzyme-labeled antigen (HRP-aecAZI) for binding to an antibody coated on the plate (dcELISA) or coupled covalently to Sepharose beads. The latter immunosorbent was used in the immunobeads assay (IBA) and immunofiltration assay (IFA).
Immunofiltration assay (IFA). The IFA principle consisted of passing a mixture of standard/sample (10 mL) and HRP-aecAZI through the beads with immobilized antibodies (Anti-CLA(IgG)-S4B or Anti-CLA(IgG)-SCL2B) placed in a homemade column and recording the enzymatic activity of the captured HRP-aecAZI. Briefly, the optimal volume of the prepared immunosorbent was placed on a pre-moistened filter support in a 10 μL filtered micropipette tip, which was then accurately attached to a syringe. This homemade column was filled with 10 mL of the standard analyte or water sample, avoiding the formation of bubbles. […]

[8] = system: antibody to immunogen BSA-cmoCLA(ae); parameters: method as in PMID 32693204; conditions: breast milk; CLA = 100; cited from earlier work
[9] = coating antigen OVA-aecAZI(dma)

**Q.** For `CC[C@H]1OC(=O)[C@H](C)[C@@H](O[C@H]2C[C@@](C)(OC)[C@@H](O)[C@H](C)O2)[C@H](C)[C@@H](O[C@@H]2O[C@H](C)C[C@H](N(C)C)[C@H]2O)[C@](C)(O)C[C@@H](C)C(=O)[C@H](C)[C@@H](O)[C@]1(C)O` [ERY, Erythromycin], which IC50 [1] is on record?
**A.** Its IC50 is 0.20 ng/mL (≈ 0.273 nM).

**Q.** What about the “IC10 (LOD)” value [2] of the same molecule?
**A.** Its value is 0.002 ng/mL (≈ 0.00273 nM).

**Q.** And the “IC20-IC80 (working range)” value [2]?
**A.** Its value is 0.006 to 0.054 ng/mL.

**Q.** And the IC50 [2]?
**A.** The IC50 was 0.020 ng/mL (≈ 0.0273 nM).

**Q.** And the IC50 ([3]; coating antigen OVA(pi)-aecAZI)?
**A.** The IC50 was 0.042 ng/mL (≈ 0.0572 nM).

**Q.** And the LOD ([3]; coating antigen OVA(pi)-aecAZI, water)?
**A.** Its LOD is 0.01 ng/mL.

**Q.** And the CR ([3]; coating antigen OVA(pi)-aecAZI)?
**A.** The CR was 105%.

**Q.** And the IC50 [3, 9]?
**A.** The IC50 was 0.223 ng/mL (≈ 0.304 nM).

**Q.** And the CR [3, 9]?
**A.** Its CR is 70.4%.

**Q.** And the IC50 ([3]; coating antigen OVA-aecAZI(ga))?
**A.** Its IC50 is 0.049 ng/mL (≈ 0.0668 nM).

**Q.** What about the CR ([3]; coating antigen OVA-aecAZI(ga)) of the same molecule?
**A.** Its CR is 87.8%.

**Q.** What about the IC50 ([3]; coating antigen OVA-cmoERY(ae)) of the same molecule?
**A.** The IC50 was 0.240 ng/mL (≈ 0.327 nM).

**Q.** What about the CR ([3]; coating antigen OVA-cmoERY(ae)) of the same molecule?
**A.** The CR was 71.7%.

**Q.** What about the CR [4] of the same molecule?
**A.** Its CR is 100%.

**Q.** And the LOD [4]?
**A.** The LOD was “ni//0.13 ng/mL”.

**Q.** And the CR [5]?
**A.** Its CR is 30.1%.

**Q.** What about the “IC10 (LOD)” value [6] of the same molecule?
**A.** The value was 0.007 ng/mL (≈ 0.00954 nM).

**Q.** And the “IC20-IC80 (working range)” value [6]?
**A.** Its value is 0.015 to 0.199 ng/mL.

**Q.** What about the IC50 [6] of the same molecule?
**A.** Its IC50 is 0.055 ng/mL (≈ 0.0749 nM).

**Q.** And the “IC10 (LOD)” value [7]?
**A.** The value was 0.001 ng/mL (≈ 0.00136 nM).

**Q.** What about the “IC20-IC80 (working range)” value [7] of the same molecule?
**A.** Its value is 0.002 to 0.019 ng/mL.

**Q.** What about the IC50 [7] of the same molecule?
**A.** The IC50 was 0.005 ng/mL (≈ 0.00681 nM).

**Q.** And the CR [8]?
**A.** Its CR is 7.5%.
